Measurements published in publication PMC6032158, “Structure–Activity Relationship of Piplartine and Synthetic Analogues against Schistosoma mansoni and Cytotoxicity to Mammalian Cells” (International Journal of Molecular Sciences, 2018).

Tests used:
[1] = system: 49-day-old S. mansoni adult worms; experiment: In vitro experiments with adult worms of S. mansoni (mortality, motor activity); type: cell-based, Schistosoma mansoni; conditions: for Dead Worms (%) F / Motor Activity Reduction (%) Significant F / Motor Activity Reduction (%) Slight F: female worms; for Dead Worms (%) M / Motor Activity Reduction (%) Significant M / Motor Activity Reduction (%) Slight M: male worms
Method: The Belo Horizonte (BH) strain of S. mansoni was maintained in Biomphalaria glabrata snails and Mesocricetus auratus hamsters at the Adolfo Lutz Institute (São Paulo, Brazil) according to standard procedures. Detailed methods for the infection of molluscs and hamsters, as well as for the recovery of parasites, were as described previously. Briefly, the intermediate host snails were exposed to light for approximately 3 h and cercariae of S. mansoni were subsequently harvested. […] All animals were handled in strict accordance with good animal practice as defined by the Animal Use Ethics Committee. The preparations and culture of schistosomes was performed as previously described. Briefly, hamsters were killed 49 days after infection for the recovery of adult schistosomes. Next, fresh adult worm pairs (male and female) were washed and placed in a 24-well culture plate (TPP, St. […] Adult schistosomes were maintained continuously in medium (with or without drugs) for 96 h as described below. In vitro assays in S. mansoni adults were performed with mated males and females. The worm pairs obtained from the infusion hamsters were washed twice with RPMI 1640 medium containing 200 U/mL penicillin, 200 μg/mL streptomycin and 2 μg/mL amphotericin B (Vitrocell, Campinas, Brazil). The mated parasites were then transferred into 24-well cell culture plates (TPP, St. […] Cultures of adult worms were monitored by microscopy or magnifying glass. The effect of the drug was assessed with emphasis on changes in worm motor activity and death of worms as previously described.

[2] = system: mouse BALB/cN macrophage (J774A.1) cell line; experiment: Cell viability by flow cytometry in macrophages; conditions: 24 h, 25, 100 and 400 µg/mL, vs DMEM control
[3] = system: murine fibroblast (NIH-3T3) cells; experiment: MTT cytotoxicity assay in murine fibroblasts; type: cell-based
Method: Next, the medium was removed and various concentrations (25–800 µg/mL) of samples reconstituted in 3% DMSO were applied. DMSO (3%) was used as a control. The plates were incubated for 24 h. Next, 15 µL of MTT solution (5 mg/mL in phosphate buffer) was added to each well and the plates were incubated for 2 h. Medium was discarded and 100 µL of DMSO was added to each well. Absorbance was determined using a spectrophotometer with a microplate reader at 595 nm (Molecular Devices Corporation, Sunnyvale, CA, USA).

[4] = system: J774A.1 cells; experiment: Cell death mechanism, annexin-V FITC / propidium iodide staining by flow cytometry; type: cell-based, mouse; conditions: J774A.1, 24 h; piplartine 25 μg/mL, 14B 400 μg/mL
Method: Cells were then treated with 2 µL of annexin-V FITC (Apoptosis Detection Kit; BD Biosciences, Franklin Lakes, NJ, USA) and 2 µL of propidium iodide (PI, 50 µg/mL) for 15 min in the dark at room temperature. Next, 100 µL binding buffer was added and samples were analysed by flow cytometry (BD LSFortessa^TM, Franklin Lakes, NJ, USA). A total of 20,000 events were collected per sample.

## CCCCOC(=O)/C=C/C=C/c1cc(OC)c(OC)c(OC)c1 [Compound 19A]
[1]; 25 µM, 24 h
  Dead Worms (%) F: 0%
  Motor Activity Reduction (%) Significant F: 0%
  Motor Activity Reduction (%) Slight F: 0%
  Dead Worms (%) M: 0%
  Motor Activity Reduction (%) Significant M: 0%
  Motor Activity Reduction (%) Slight M: 0%
[1]; 50 µM, 24 h
  Dead Worms (%) F: 0%
  Motor Activity Reduction (%) Significant F: 0%
  Motor Activity Reduction (%) Slight F: 0%
  Dead Worms (%) M: 0%
  Motor Activity Reduction (%) Significant M: 0%
  Motor Activity Reduction (%) Slight M: 0%
[1]; 50 µM, 48 h
  Dead Worms (%) F: 0%
  Motor Activity Reduction (%) Significant F: 0%
  Motor Activity Reduction (%) Slight F: 0%
  Dead Worms (%) M: 0%
  Motor Activity Reduction (%) Significant M: 0%
  Motor Activity Reduction (%) Slight M: 0%
[1]; 50 µM, 72 h
  Dead Worms (%) F: 0%
  Motor Activity Reduction (%) Significant F: 0%
  Motor Activity Reduction (%) Slight F: 0%
  Dead Worms (%) M: 0%
  Motor Activity Reduction (%) Significant M: 0%
  Motor Activity Reduction (%) Slight M: 0%
[1]; 50 µM, 96 h
  Dead Worms (%) F: 0%
  Motor Activity Reduction (%) Significant F: 0%
  Motor Activity Reduction (%) Slight F: 0%
  Dead Worms (%) M: 0%
  Motor Activity Reduction (%) Significant M: 0%
  Motor Activity Reduction (%) Slight M: 0%
[1]; analogues 50, 25, 10 and 5 μM, piplartine 5 and 10 μM, up to 96 h
  activity against S. mansoni adult worms (in words): loss of biological activity against S. mansoni
[2]
  effect on J774A.1 cell viability (in words): did not reduce cell viability at the same concentrations
[3]; MTT, 24 h exposure, 25 to 800 µg/mL
  effect on NIH-3T3 cell viability (in words): did not exert significant effects on mammalian cell viability at the tested concentrations
[3]; Mus musculus, NIH3T3, 24 h, decrease in cell viability at the maximum concentration tested (800 μg/mL), NIH-3T3, 24 h
  Emax at 800 µg/mL: < 50%

## OO [Compound H2O2, hydrogen peroxide, reference compound]
[4]
  annexin-V FITC staining (apoptosis marker) vs DMEM negative control (in words): significant (p < 0.05) increase in annexin-V FITC fluorescence intensity
